Molecular target: T1, PcE1 (Panonychus citri, UniProt D7NHW8)
T1 construct: ORF in pFastBac HTA, baculovirus-infected Sf9 cells; supernatant of cell homogenate
T1 sequence (D7NHW8 19-550): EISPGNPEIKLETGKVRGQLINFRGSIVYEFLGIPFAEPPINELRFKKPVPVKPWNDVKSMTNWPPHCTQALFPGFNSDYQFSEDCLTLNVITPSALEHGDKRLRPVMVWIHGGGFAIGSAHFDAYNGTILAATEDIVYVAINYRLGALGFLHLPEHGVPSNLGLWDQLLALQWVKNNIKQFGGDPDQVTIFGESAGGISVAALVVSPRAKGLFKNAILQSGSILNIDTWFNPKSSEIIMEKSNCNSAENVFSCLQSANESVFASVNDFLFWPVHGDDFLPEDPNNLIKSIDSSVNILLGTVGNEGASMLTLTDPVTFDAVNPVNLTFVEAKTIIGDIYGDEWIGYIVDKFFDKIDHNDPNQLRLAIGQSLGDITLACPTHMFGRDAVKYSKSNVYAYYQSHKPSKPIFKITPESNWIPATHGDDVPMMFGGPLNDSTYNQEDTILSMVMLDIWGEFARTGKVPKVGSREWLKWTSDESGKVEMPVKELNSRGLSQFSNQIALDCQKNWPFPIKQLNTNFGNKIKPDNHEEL
Assay: spectrophotometric, fast blue coupling, […] nm
Format: biochemical
Settings: Sf9 cell lysate versus GFP control; pH 7.0, 30 °C

CC(=O)Oc1cccc2ccccc12 [α-naphthyl acetate] was tested, and the “spectrophotometric, fast blue coupling, 600 nm” value was “All recombinant proteins showed significant catalytic activities when α-NA was used as the substrate”.
